Test results as given in patent US11458106B2, “Lipid nanoparticles comprising lipophilic anti-inflammatory agents and methods of use thereof” (ASTRAZENECA AB, priority 2016, dated 2022).

Experiments:
[1] = system: haptoglobin; experiment: Quantification of haptoglobin in plasma; assay type: in vivo, mice; conditions: 24 h; for haptoglobin in plasma: s.c. 0.3 mg mRNA/kg
Description: (§1) Different groups of 5 mice (female, age˜12 weeks, Crl:Cd1(ICR), Charles River) were administered with PBS (negative control) or mRNA 1 formulated in lipid nanoparticles. Prior to administration, the mice were lightly anaesthetized with Isoflurane 5% and the injection area was shaved. The formulations were then injected subcutaneously (5 ml/kg or 0.3 mg mRNA/kg) in the intrascapular region to different groups of mice. Post-dose blood samples were collected and plasma was prepared by centrifugation. Aliquots of plasma were transferred into cryo tubes (0.5 ml U-shaped polypropylene cryotubes (Sarstedt Microtube with cap Ref #72.730) and stored frozen until quantification of haptoglobin, cytokines/chemokines and mRNA 1 protein concentrations. In some studies, quantification was also carried out of lipophilic anti-inflammatory agent in plasma samples. At 24 hours after administration, clinical signs of inflammatory response was evaluated by gently pressing the finger over the injection area to determine edema and judged by visual inspection as edema or no edema in the different mice. The number of mice displaying visible signs of edema per group (each group having 5 mice) was summed to give an edema score of 0-5.
Plasma concentrations of haptoglobin were measured by EMD Millipore's MILLIPLEX® MAP Mouse Acute Phase panel 2 kit (Merck KGaA, Darmstadt, Germany). The sample was first diluted 1:20 000 with Assay buffer then, together with standard's and QC's placed in a 96 well plate. A solution containing beads were then added. The beads were magnetic microspheres each of which was coated with a specific antibody. The mixture was incubated over night at 4° C. and the reaction mixture was then incubated with Streptavidin-PE conjungate to complete the reaction on the surface of each microsphere. The plate was read on analyzer Luminex® 100. Each individual microsphere was identified and the result of its bioassay quantified based on fluorescent reporter signals. The concentration was measured using Median Fluorescent Intensity (MFI) data using a 5-parameter logistic curve-fitting method.

[2] = system: mice (female, Crl:Cd1(ICR)); experiment: Edema scoring at injection area after subcutaneous administration; assay type: in vivo
Description: as §1

[3] = system: IL-6; experiment: Quantification of cytokines/chemokines in plasma: IL-6; assay type: in vivo, mice; conditions: Example 10; pro-drug in L608 (Merck-32) LNPs, s.c. 0.3 mg mRNA/kg, 7 and 24 hours; vs. Sample S26
Description: (§2) Different groups of 5 mice (female, age˜12 weeks, Crl:Cd1(ICR), Charles River) were administered with PBS (negative control) or mRNA 1 formulated in lipid nanoparticles. Prior to administration, the mice were lightly anaesthetized with Isoflurane 5% and the injection area was shaved. The formulations were then injected subcutaneously (5 ml/kg or 0.3 mg mRNA/kg) in the intrascapular region to different groups of mice. Post-dose blood samples were collected and plasma was prepared by centrifugation. Aliquots of plasma were transferred into cryo tubes (0.5 ml U-shaped polypropylene cryotubes (Sarstedt Microtube with cap Ref #72.730) and stored frozen until quantification of haptoglobin, cytokines/chemokines and mRNA 1 protein concentrations. In some studies, quantification was also carried out of lipophilic anti-inflammatory agent in plasma samples. At 24 hours after administration, clinical signs of inflammatory response was evaluated by gently pressing the finger over the injection area to determine edema and judged by visual inspection as edema or no edema in the different mice. The number of mice displaying visible signs of edema per group (each group having 5 mice) was summed to give an edema score of 0-5. Plasma concentrations of murine cytokines/chemokines were measured by EMD Millipore's MILLIPLEX® MAP Mouse Cytokine magnetic bead kit (Merck KGaA, Darmstadt, Germany) for the simultaneous quantification of cytokines; IL-6, KC, MCP-1 and IP-10. The samples were first diluted 1:2 with Assay buffer then, together with standard's and QC's placed in a 96 well plate. A solution containing beads were added. The beads are magnetic microspheres each of which is coated with a specific antibody. The mixture was incubated over night at 4° C. and the reaction mixture was then incubated with Streptavidin-PE conjungate to complete the reaction on the surface of each microsphere. The plate was read on analyzer Luminex® 100. Each individual microsphere was identified and the result of its bioassay quantified based on fluorescent reporter signals. The concentration was measured using Median Fluorescent Intensity (MFI) data using a 5-parameter logistic curve-fitting method.

[4] = system: KC; experiment: Quantification of cytokines/chemokines in plasma: KC; assay type: in vivo, mice; conditions: Example 10; pro-drug in L608 (Merck-32) LNPs, s.c. 0.3 mg mRNA/kg, 7 and 24 hours; vs. Sample S26
Description: as §2

[5] = system: mRNA 1 protein; experiment: Quantification of mRNA 1 protein in plasma; assay type: in vivo, mice; conditions: s.c. 0.3 mg mRNA/kg; for expression of mRNA 1 (plasma): Example 10, pro-drug in L608 (Merck-32) LNPs, vs. conventional LNPs (Sample S26); for protein expression (plasma mRNA 1 protein): Example 6, pro-drug in DLin-MC3-DMA LNPs, 0-24 h, vs. non-anti-inflammatory LNPs
Description: as §1
mRNA 1 protein was measured as a single analyte with the Milliplex Human Liver Protein Magnetic beads [Merck Millipore, Darmstadt, Germany]. The assay was performed using the Bioplex Multiplex Suspension Array System, Luminex 100TM] and Bioplex Manager 6.1 software curve fitting software [Bio-Rad Laboratories, Hercules, Calif.]. Briefly, the assay was performed according to a modified protocol based upon the manufacturers' instruction, with additional calibration points to extend the lower range of the standard curve. Sample data was back calculated from the standard curve (5PL curve fitting).

[6] = Example 10, pro-drug in L608 (Merck-32) LNPs, vs. conventional LNPs (Sample S26)
[7] = Example 10, pro-drug in L608 (Merck-32) LNPs, s.c. 0.3 mg mRNA/kg, vs. conventional LNPs (Sample S26)
[8] = Example 6, pro-drug in DLin-MC3-DMA LNPs, vs. non-anti-inflammatory LNPs
[9] = Example 6, pro-drug in DLin-MC3-DMA LNPs with mRNA 1, s.c. 0.3 mg mRNA/kg, vs. non-anti-inflammatory LNPs
[10] = Example 9, in both Acuitas-5 and KL10 based LNPs, s.c. 0.3 mg/kg, compared to LNPs based on DLin-MC3-DMA
[11] = Example 7, in both DLin-MC3-DMA or Merck-32 based LNPs

SMILES | haptoglobin in plasma [1, 6] | inflammation measured as edema scoring [2, 7] | plasma IL-6 [3] | plasma KC [4] | expression of mRNA 1 (plasma) [5] | haptoglobin in plasma [1, 8] | inflammation measured as edema scoring [2, 9] | protein expression (plasma mRNA 1 protein) [5] | plasma haptoglobin [1, 10] | inflammation measured as edema scoring [2, 10] | mRNA 1 protein expression ([5]; Example 9, time interval 0-24 h, Acuitas-5 and KL10 LNPs with vs without rofleponide myristate) | haptoglobin in plasma [1, 11] | inflammation measured as edema scoring ([2]; Example 7, in both DLin-MC3-DMA or Merck-32 based LNPs, s.c. 0.3 mg mRNA/kg, 24 h, vs same LNPs without) | expression of mRNA 1 protein [5, 11]
CCCCCCCCCCCCCC(=O)OCC(=O)[C@@]12OC(CCC)O[C@@H]1C[C@H]1[C@@H]3CCC4=CC(=O)C=C[C@]4(C)[C@H]3[C@@H](O)C[C@@]12C (stereo partly shown) [B-C14, budesonide myristate] | not influenced to the same extent | not influenced to the same extent | not influenced to the same extent | not influenced to the same extent |  |  |  |  |  |  |  |  |  | 
CCCCCCCCCCCCCCCC(=O)OCC(=O)[C@@]12OC(CCC)O[C@@H]1C[C@H]1[C@@H]3CCC4=CC(=O)C=C[C@]4(C)[C@H]3[C@@H](O)C[C@@]12C (stereo partly shown) [B-C16, budesonide palmitate] | significantly reduce | significantly reduce | significantly reduce | significantly reduce | increased and prolonged expression of mRNA 1 |  |  |  |  |  |  |  |  | 
CCCCCCCC/C=C\CCCCCCCC(=O)OCC(=O)[C@@]12OC(CCC)O[C@@H]1C[C@H]1[C@@H]3CCC4=CC(=O)C=C[C@]4(C)[C@H]3[C@@H](O)C[C@@]12C (stereo partly shown) [B-C18:1, budesonide oleate] | significantly reduce | significantly reduce | significantly reduce | significantly reduce | increased and prolonged expression of mRNA 1 |  |  |  |  |  |  |  |  | 
CCCCC(=O)OCC(=O)[C@@]12O[C@H](CCC)O[C@@H]1C[C@H]1[C@@H]3C[C@H](F)C4=CC(=O)CC[C@]4(C)[C@@]3(F)[C@@H](O)C[C@@]12C [R-C5, rofleponide valerate] |  |  |  |  |  | not significantly influenced | not significantly influenced | did not produce a significantly increased total protein expression |  |  |  |  |  | 
CCCCCCCCCCCCCC(=O)OCC(=O)C12OC(CCC)OC1CC1C3CC(F)C4=CC(=O)CCC4(C)C3(F)C(O)CC12C (stereo not shown) [R-C14, rofleponide myristate] | significantly reduce | significantly reduce | significantly reduce | significantly reduce | increased and prolonged expression of mRNA 1 | significantly reduced | significantly reduced | increased and prolonged protein expression | reduced | reduced | increased |  |  | 
CCCCCCCCCCCCCCCC(=O)OCC(=O)C12OC(CCC)OC1CC1C3CC(F)C4=CC(=O)CCC4(C)C3(F)C(O)CC12C (stereo not shown) [R-C16, rofleponide palmitate] |  |  |  |  |  | significantly reduced | significantly reduced | increased and prolonged protein expression |  |  |  | significantly reduced | significantly reduced | increased expression of mRNA 1 protein
CCCCCCCCCCCCCCCCCC(=O)OCC(=O)[C@@]12O[C@H](CCC)O[C@@H]1C[C@H]1[C@@H]3C[C@H](F)C4=CC(=O)CC[C@]4(C)[C@@]3(F)[C@@H](O)C[C@@]12C [R-C18, rofleponide stearate] |  |  |  |  |  | significantly reduced | significantly reduced | increased and prolonged protein expression |  |  |  |  |  | 
